row,Structure (SMILES),melting point
1,CS(=O)(=O)c1ccc(-c2cnn(Cc3ccncc3)c(=O)c2-c2ccc(F)cc2)cc1,153 to 156 °C
2,COCCSc1[nH]nc(-c2ccc(Cl)cc2)c1-c1ccncc1,189 to 190 °C
3,CCCc1nc2c(N)nc3c(c2n1CCCCCC(=O)N1CCOCC1)CCCC3,162 to 163 °C
4,O=C(NC(=O)c1c(F)cccc1F)Nc1cc(Br)c(F)c(Cl)c1F,225 to 227 °C
5,Cc1ccccc1OC1CCN(CCc2c[nH]c3ccccc23)CC1,88 to 90 °C
6,COc1ccc(-c2cc3cc(F)c(F)cc3[nH]2)cc1NC(=S)Nc1cc(Cl)cc(Cl)c1,203 to 205 °C
7,CN1C(=O)CC[C@]2(C)c3ccc(-c4ccc5c(c4)CCC5O)cc3CC[C@@H]12 (stereo partly specified),185 to 190 °C
8,Cc1cc2cc(/C(=C\CO)c3ccc(I)cc3)ccc2o1,103 to 113 °C
9,COc1cccc(-c2[nH]cc(C3=C[C@@H]4C[C@@H](c5ccccc5)CN4CC3)c2-c2ccncc2)c1,141 to 144 °C
10,CCC(CC)n1nnc2c(Oc3c(C)cc(C)cc3C)nc(C)c(C)c21,127 to 129 °C
11,O=c1ccc2c(-c3cccc(O)c3)nccc2[nH]1,297 to 299 °C
12,Cc1cc(NC(=O)CC(C)(C)C)c(C)c2c1OCC2c1ccc(C(C)C)cc1 (stereo unspecified),135 to 136 °C
13,O=C1CCC(N2Cc3cc(CNC(=O)c4cccc(C(F)(F)F)c4)ccc3C2=O)C(=O)N1 (stereo unspecified),244 to 246 °C
14,O=C(c1ccccc1)N1CCN(c2ccc3nc4[nH]c(=O)[nH]c4cc3c2)CC1,> 300 °C
15,Fc1cccc(Nc2nc(Cl)nc3nc[nH]c23)c1,> 250 °C
16,COc1ccc(C(=O)Nc2ccc(F)cc2)cc1NS(=O)(=O)c1cccc([N+](=O)[O-])c1,221 to 240 °C
17,CC(C)C1NC(=O)CN1C(=O)CNC(=O)CN1CCCC1=O (stereo unspecified),104 to 106 °C
18,C=C(C)[C@H](C(=O)OC(c1ccccc1)c1ccccc1)N1C(=O)[C@@H]2N=C(c3ccccc3)O[C@@H]21,116 to 118 °C
19,CN1CCN(c2cc3c(F)cccc3c(=O)[nH]2)CC1,238 to 239 °C
20,O=C(Nc1ccn(CC(O)CF)c(=O)n1)c1ccccc1 (racemic),205 °C
21,N#Cc1ccc(N2CC(=O)NC2=O)c(-c2cccs2)c1,189 °C
22,CNc1ccc2sc3ccccc3c(=O)c2c1,172 to 175 °C
23,CCCCc1nc(Cl)c(CC#N)n1Cc1ccc([N+](=O)[O-])cc1,118 to 121 °C

row,Structure (SMILES),melting point
1,COCCNS(=O)(=O)c1cc2[nH]c(=O)c(=O)[nH]c2cc1[N+](=O)[O-],320 to 321 °C
2,CC1(C)CCCC(C)(C)N1OCc1ccccc1C(=O)ON1C(=O)CCC1=O,145 °C
3,O=C1NC2CCC(Cc3ccc(O)cc3)CC2CC1CO (stereo unspecified),126 to 128 °C
4,COc1cc(OC)cc(-c2nc[nH]c2-c2ccc(OC)c(O)c2O)c1,132 to 134 °C
5,O=C1CCN(c2ccc(C=C3SC(=O)NC3=O)cc2F)CC1,> 200 °C
6,Cc1cc(F)ccc1-c1nc(NCCNC(=O)NC2CCCCC2)nc2c1ccc(=O)n2-c1c(F)cccc1F,131 to 144 °C
7,CCOC(=O)C1(O)CSC(O)(C(=O)OCC)CS1 (stereo unspecified),139 to 143 °C
8,O=C(c1ccc(F)cc1)C1CCN(CCN(C(=O)c2cccc([N+](=O)[O-])c2)c2ccc(F)cc2)CC1,97 to 113 °C
9,Cc1ccc(-n2nc(O)c3[nH]c4cc(Cl)cc(Cl)c4c(=O)c3c2=O)c(C)c1,335 to 336 °C
10,CCCn1nc2c(N)nc3ccccc3c2c1CC(C)(C)NC(C)=O,182 to 183 °C
11,O=C1Nc2ccc(Cl)cc2C1(NCCO)c1ccccc1Cl (stereo unspecified),198 to 200 °C
12,Cc1cc(SC2=C(O)CC(CCc3csc(CO)c3)(C(C)C)OC2=O)c(C(C)(C)C)cc1CO (stereo unspecified),76 to 80 °C
13,COCCOc1cc(NC(=O)OC(C)(C)C)c(NC(=O)CC(=O)c2cccc(I)c2)cc1C#Cc1ccccc1,172 °C
14,Cc1c(C(F)(F)F)ncn(-c2c(Cl)cc(C(F)(F)F)cc2C#N)c1=O,154 to 155 °C
15,Cc1noc(NS(=O)(=O)c2ccccc2-c2ccc(-c3ncccn3)cc2CN2CCC(C)(C)C2=O)c1C,105 to 115 °C
16,CC(C)(C)N1CC(=O)Nc2ccc(I)cc2C1=O,230 to 232 °C
17,CN1C(C)(C)CC(NC(=O)c2ccc(-c3nc4ccc(Cl)cc4[nH]3)cc2)CC1(C)C,> 250 °C
18,CN(C)C1(c2ccccc2)CCC(CNC(=O)NCCCc2ccccc2)CC1 (stereo unspecified),100 to 110 °C
19,CCOC(=O)c1ccc(/C=C/C2CCCN2C(=O)OC(C)(C)C)cc1 (stereo unspecified),68 to 70 °C
20,CC(=NNC(=O)C1CC1)c1ccc(Cl)nc1,218 °C
21,CC(C)n1nc(-c2sc(C(=O)N3CCCC3)nc2-c2ccccc2)ccc1=O,169 to 170 °C
22,Cc1cc(C(=O)O)ccc1C1=CCCCC1,173 to 175 °C
23,COC(=O)COCc1cc2cc(C(F)(F)F)ccc2n1S(=O)(=O)c1ccccc1,90 to 92 °C

row,Structure (SMILES),melting point
1,Cc1ncc([N+](=O)[O-])n1CCOS(C)(=O)=O,152 to 153 °C
2,CCOC(=O)Cc1ccc(NC(=O)C(CCO)NS(=O)(=O)c2ccc(Cl)cc2)cc1 (racemic),164 to 167 °C
3,Cn1c(-c2ccccc2)c(CCCl)sc1=O,88 to 90 °C
4,Nc1cc2nc(O)c(O)nc2c2ccccc12,> 300 °C
5,COc1ccc(S(=O)(=O)N2CCC[C@H]2C(=O)NO)cc1,164 to 166 °C
6,O=C1CCN(Cc2ccccc2OC(F)(F)F)CC1C(c1ccc(F)cc1)c1ccc(F)cc1 (stereo unspecified),88 to 89 °C
7,CC(=O)CN(C(=O)c1ccco1)c1c(C)cccc1C,90 to 91 °C
8,CCOC(=O)C(=CN(C)C)C(=O)c1cc2cc(F)c(F)c(F)c2nc1Cl,118 °C
9,COc1ccc(-c2nc(O)c(-c3ccccc3)s2)cc1,218 to 221 °C
10,C[Si](C)(C)c1ccc2c(c1)C([Si](C)(C)C)([Si](C)(C)C)c1cc([Si](C)(C)C)ccc1-2,141 to 142 °C
11,Nc1ccn2nc(-c3ccccc3)nc2c1,212 to 213 °C
12,Cc1ccc(-c2cc(NCCN(C)C)c3ccccc3n2)s1,103 to 105 °C
13,CCOC(=O)Sc1cc(C)nc(C(Cl)(Cl)Cl)n1,33 to 34.5 °C
14,COc1ccc(C=CC2=NN=C(C)Cc3cc(OC)c(OC)cc32)c(OC)c1,148 to 150 °C
15,COc1ccccc1-c1ccc(C(=O)N2Cc3ccc(C(=O)NCc4cccn4C)n3Cc3ccccc32)cc1,148 to 150 °C
16,CCOP(=O)(Cc1cc(=O)[nH]c2cc(I)ccc12)OCC,196 to 198 °C
17,Cn1cnc2cc(F)ccc2c1=O,133 to 135 °C
18,CNC(=O)C1(c2ccc([N+](=O)[O-])cc2)C2C=CC(C2)C1C(N)=O (stereo unspecified),164 to 166 °C
19,COC(=O)/C=C/c1ccc(C)cc1Br,70 °C
20,Cc1ccc2c(c1)CSc1nnc(C)n1-2,168 °C
21,CN(C)C=CC(=O)C(c1ccccc1)c1ccccc1,93 to 94 °C

# Second part, the compound after the results:
row,melting point,Structure (SMILES)
1,64 to 66 °C,O=C(O)C[C@@]1(C[N+](=O)[O-])C[C@H]2CCC[C@H]21
2,155 to 157 °C,O=[N+]([O-])c1cnc(Sc2n[nH]c(-c3ccccc3)n2)s1
3,160 to 162 °C,NC(=O)c1cc(Cl)c(N[C@H]2CC[C@H](N)CC2)cc1F
4,176 to 178 °C,Cc1c(NC(=O)c2ccc(-c3ccc(F)cc3)c(F)c2)ccc2cc(CN3CCCC3)cnc12
5,103 to 105 °C,Cc1cnc(-n2cc(C(F)(F)F)cn2)nc1Oc1cccc(C(F)(F)F)c1
6,166 to 167 °C,CS(=O)(=O)c1nccn1-c1nc(-c2ccc(Cl)cc2)c(CCC(=O)O)o1
7,81 to 83 °C,CN(C)CCCOc1ccc(C(=O)NN)cn1
8,149 °C,COC[C@](C#N)(C(=O)N1CCN(c2cnccn2)CC1)[C@H](c1ccccc1OC)c1cccc2ccccc12
9,91 to 94 °C,CCC1(CC)C(=O)N(C(C)(C)C)CC(C)(C)N1C(C)c1ccc(C(C)=O)cc1 (stereo unspecified)
10,161 to 162 °C,O=C(O)c1cc(=O)c2cccc(/C=C/c3ccc(OCCCCc4ccc(F)cc4)cc3)c2o1
11,112 to 114 °C,COc1ccc(OC)c2c1CCC(O)(CC(=O)O)C2 (stereo unspecified)
12,255 to 257 °C,COc1ccc(C=CC(=O)Nc2cc(Cl)ccc2C(=O)O)cc1OC
13,176 °C,COc1cc(Cn2c(=O)n(C3CCCCC3)c3cc(Cl)ccc32)ccc1[N+](=O)[O-]
14,215 to 218 °C,COC(=O)Cn1c(=O)[nH][nH]c1=O
15,89 to 91 °C,Cc1c(Cl)c(Oc2ccc(C(F)(F)F)cc2[N+](=O)[O-])nn1C(=O)NC(C)C
16,182 to 183 °C,O=C(O)C=Cc1cn(Cc2cc(OCc3ccccc3)cc(OCc3ccccc3)c2)cc1-c1ccccc1
17,55 to 56 °C,O=Cc1ccc(OCc2ccccc2)c(OC2CCCC2)c1

row,melting point,Structure (SMILES)
1,68 to 71 °C,CCC1(CC)C(=O)N(C(C)(C)C)CC(C)(C)N1OC(C)(C)C#N
2,96.5 to 99 °C,CCCCC(=O)Nc1ccc(N)cc1Cl
3,293 to 295 °C,COc1ccc2c(C(=O)O)cc3cc4c(cc3c2c1)OCO4
4,> 260 °C,N#Cc1ccc(-c2ccc(-c3nc(N)nc(N)n3)cc2)cc1
5,82 to 84 °C,CCCCCCC(=O)N(CCCCn1ccnc1)C1=Nc2cccc3cccc1c23
6,221 °C,O=C(Nc1nc(C(F)(F)F)co1)C1c2ccccc2Oc2cc(F)ccc21 (racemic)
7,65 °C,O=C(CCNNC(=O)c1ccccc1)OCc1ccccc1
8,114 to 116 °C,O=[N+]([O-])C1CC=CCC1c1ccccc1 (stereo unspecified)
9,127 to 128 °C,CC(=O)c1c(C)cc(NC(C)(C)C)nc1NC(C)(C)C
10,105 to 107 °C,O=C(c1ccccc1)n1c2c(c3ccccc31)CC(CO)CC2 (stereo unspecified)
11,86.8 °C,Cc1nc(C)nc(-c2cccc(-c3ccccc3C)n2)n1
12,186 to 187 °C,CN(c1cccc2cc(-c3ncc(CC#N)s3)[nH]c12)S(=O)(=O)c1cccs1
13,198 to 206 °C,COC(=O)Nc1nc2cc(S(=O)CC3CCC3)ccc2[nH]1 (stereo unspecified)
14,79 to 80 °C,CCOC(=O)c1nc(/C=C/c2ccccc2)ns1
15,> 310 °C,Cc1cscc1NC(=S)Nc1cc(C(F)(F)F)cc(Cl)c1N
16,110 to 112 °C,CC1OC(=O)C(C)C(NC(=O)OCc2ccccc2)C1C(=O)OCc1ccccc1 (stereo unspecified)
17,131 °C,c1ccc(-c2nn[nH]c2-c2ccccc2)cc1

# Source: a melting point compilation (Tetko et al.; mined from patent text by program, amines drawn as free bases though some values may be those of a salt)
